Source: the NIST ThermoML archive (doi:10.1016/j.fluid.2018.04.007)

Columns and labels:
[1] = refractive index (Na D-line) (dimensionless); xn = mol fraction of the nth substance listed; details: 101 kPa, Liquid, Standard Abbe refractometry
[2] = relative permittivity at various frequencies (dimensionless); xn = mol fraction of the nth substance listed; details: 101 kPa, Liquid, Frequency=1 MHz, Parallel plate capacitor

CCCCCCN [1-hexanamine] + CO
Details | refractive index, 293.15 K | refractive index, 298.15 K | refractive index, 303.15 K | relative permittivity, 293.15 K | relative permittivity, 298.15 K
[1], x2 = 0 | 1.41808 | 1.41563 | 1.41321 | – | –
[1], x2 = 0.0534 | 1.41741 | 1.41499 | 1.41261 | – | –
[1], x2 = 0.0942 | 1.41681 | 1.41442 | 1.41204 | – | –
[1], x2 = 0.1871 | 1.41513 | 1.41282 | 1.4104 | – | –
[1], x2 = 0.2977 | 1.4125 | 1.41017 | 1.40773 | – | –
[1], x2 = 0.4039 | 1.40889 | 1.40657 | 1.40412 | – | –
[1], x2 = 0.4917 | 1.4048 | 1.40243 | 1.4 | – | –
[1], x2 = 0.5977 | 1.3979 | 1.3955 | 1.39316 | – | –
[1], x2 = 0.6997 | 1.38836 | 1.38615 | 1.38372 | – | –
[1], x2 = 0.7995 | 1.37505 | 1.37296 | 1.37067 | – | –
[1], x2 = 0.8475 | 1.36685 | 1.36479 | 1.36257 | – | –
[1], x2 = 0.8978 | 1.35657 | 1.3546 | 1.3524 | – | –
[1], x2 = 0.9496 | 1.34385 | 1.34182 | 1.33968 | – | –
[1], x2 = 0.9834 | 1.33399 | 1.33194 | 1.3298 | – | –
[2], x2 = 0 | – | – | – | 3.964 | 3.904
[2], x2 = 0.0534 | – | – | – | 4.367 | 4.293
[2], x2 = 0.122 | – | – | – | 4.964 | 4.87
[2], x2 = 0.1906 | – | – | – | 5.681 | 5.564
[2], x2 = 0.3081 | – | – | – | 7.244 | 7.085
[2], x2 = 0.395 | – | – | – | 8.783 | 8.557
[2], x2 = 0.4982 | – | – | – | 11.109 | 10.806
[2], x2 = 0.6035 | – | – | – | 14.21 | 13.794
[2], x2 = 0.7016 | – | – | – | 17.646 | 17.127
[2], x2 = 0.8002 | – | – | – | 21.864 | 21.254
[2], x2 = 0.8485 | – | – | – | 24.251 | 23.597
[2], x2 = 0.8984 | – | – | – | 26.928 | 26.203
[2], x2 = 0.9496 | – | – | – | 30.037 | 29.216
[2], x2 = 0.9834 | – | – | – | 32.343 | 31.44
